Results on 17 molecules are retold here after patent US10906915B2, “Substituted pyrazoloazepin-4-ones and their use as phosphodiesterase inhibitors” (LEO Pharma A/S, priority 2016, dated 2021).

human PDE4D catalytic domain, sequence (Q08499 380-740 limits assumed): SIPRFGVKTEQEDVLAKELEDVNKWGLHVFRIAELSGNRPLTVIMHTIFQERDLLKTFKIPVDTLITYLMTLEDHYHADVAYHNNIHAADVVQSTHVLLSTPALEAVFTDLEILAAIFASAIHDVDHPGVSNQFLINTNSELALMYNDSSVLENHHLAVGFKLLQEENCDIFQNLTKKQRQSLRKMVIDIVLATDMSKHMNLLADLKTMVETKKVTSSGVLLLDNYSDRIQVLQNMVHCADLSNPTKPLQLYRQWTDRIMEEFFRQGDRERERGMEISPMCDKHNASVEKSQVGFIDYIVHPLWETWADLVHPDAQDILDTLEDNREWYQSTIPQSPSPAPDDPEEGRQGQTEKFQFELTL

In this assay the target is human PDE4D catalytic domain (UniProt no. Q08499) (Homo sapiens (Human), UniProt Q08499). The experiment in a line: PDE4 assay (TR-FRET, FAM-cAMP cleavage). The format is biochemical. The conditions noted are these: read-out: PDE4 IC50 range. The method in brief:
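PDE4D catalytic domain ([…]) was incubated with unlabelled cAMP plus FAM-cAMP and titrated compound, stopped with binding buffer of metal-ion nanoparticles and Tb donor. AMP generation read by TR-FRET; IC50 as 50% inhibition of cleavage versus controls, reported as nM ranges.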
For the molecule `CCc1nn(CCCCOC(=O)c2ccccc2)c2c1C(=O)NCC1(CCOCC1)C2` [Example 363, 4-(3-ethyl-4-oxo-spiro[6,8-dihydro-5H-pyrazolo[4,3-c]azepine-7,4′-tetrahydropyran]-1-yl)butyl benzoate], the IC50 was < 100 nM.

For the molecule `CCc1nn(CCCCOC(=O)c2cccc(C)c2)c2c1C(=O)NCC1(CCOCC1)C2` [Example 364, 4-(3-ethyl-4-oxo-spiro[6,8-dihydro-5H-pyrazolo[4,3-c]azepine-7,4′-tetrahydropyran]-1-yl)butyl 3-methylbenzoate], the 50% inhibitory concentration (IC50) is < 100 nM. Then `CCc1nn(CCCCOC(=O)c2ccc(C)cc2)c2c1C(=O)NCC1(CCOCC1)C2` [Example 365, 4-(3-ethyl-4-oxo-spiro[6,8-dihydro-5H-pyrazolo[4,3-c]azepine-7,4′-tetrahydropyran]-1-yl)butyl 4-methylbenzoate], with < 100 nM; and `CCc1nn(CCCCOC(=O)c2ccc(F)cc2)c2c1C(=O)NCC1(CCOCC1)C2` [Example 366, 4-(3-ethyl-4-oxo-spiro[6,8-dihydro-5H-pyrazolo[4,3-c]azepine-7,4′-tetrahydropyran]-1-yl)butyl 4-fluorobenzoate], with < 100 nM; and `CCc1nn(CCCCOC(=O)c2ccc(C(C)=O)cc2)c2c1C(=O)NCC1(CCOCC1)C2` [Example 368, 4-(3-ethyl-4-oxo-spiro[6,8-dihydro-5H-pyrazolo[4,3-c]azepine-7,4′-tetrahydropyran]-1-yl)butyl 4-acetylbenzoate], with 100 to 500 nM. Consider `CCc1nn(CCCCOC(=O)c2cccc(S(C)(=O)=O)c2)c2c1C(=O)NCC1(CCOCC1)C2` [Example 369, 4-(3-ethyl-4-oxo-spiro[6,8-dihydro-5H-pyrazolo[4,3-c]azepine-7,4′-tetrahydropyran]-1-yl)butyl 3-methylsulfonylbenzoate], for which the IC50 was in the range of 100 to 500 nM. In the case of `CCc1nn(CCCCOC(=O)c2ccc(S(C)(=O)=O)cc2)c2c1C(=O)NCC1(CCOCC1)C2` [Example 370, 4-(3-ethyl-4-oxo-spiro[6,8-dihydro-5H-pyrazolo[4,3-c]azepine-7,4′-tetrahydropyran]-1-yl)butyl 4-methylsulfonylbenzoate], the IC50 was 100 to 500 nM.

Turning to `CCc1nn(CCCCOC(=O)c2ccc(S(=O)(=O)CC)cc2)c2c1C(=O)NCC1(CCOCC1)C2` [Example 371, 4-(3-ethyl-4-oxo-spiro[6,8-dihydro-5H-pyrazolo[4,3-c]azepine-7,4′-tetrahydropyran]-1-yl)butyl 4-ethylsulfonylbenzoate], the IC50 fell in the range of 100 to 500 nM. For `CCc1nn(CCCCOC(=O)c2cccc(S(=O)(=O)NC)c2)c2c1C(=O)NCC1(CCOCC1)C2` [Example 372, 4-(3-ethyl-4-oxo-spiro[6,8-dihydro-5H-pyrazolo[4,3-c]azepine-7,4′-tetrahydropyran]-1-yl)butyl 3-(methylsulfamoyl)benzoate], the IC50 was < 100 nM. For `CCc1nn(CCCCOC(=O)c2ccc(S(=O)(=O)NC)cc2)c2c1C(=O)NCC1(CCOCC1)C2` [Example 373, 4-(3-ethyl-4-oxo-spiro[6,8-dihydro-5H-pyrazolo[4,3-c]azepine-7,4′-tetrahydropyran]-1-yl)butyl 4-(methylsulfamoyl)benzoate], the IC50 was 100 to 500 nM. Then `CCc1nn(CCCCOC(=O)c2ccc(S(=O)(=O)N(C)C)cc2)c2c1C(=O)NCC1(CCOCC1)C2` [Example 375, 4-(3-ethyl-4-oxo-spiro[6,8-dihydro-5H-pyrazolo[4,3-c]azepine-7,4′-tetrahydropyran]-1-yl)butyl 4-(dimethylsulfamoyl)benzoate], with 100 to 500 nM; and `CCc1nn(CCCCOC(=O)c2ccc(S(=O)(=O)C3CCCC3)cc2)c2c1C(=O)NCC1(CCOCC1)C2` [Example 376, 4-(3-ethyl-4-oxo-spiro[6,8-dihydro-5H-pyrazolo[4,3-c]azepine-7,4′-tetrahydropyran]-1-yl)butyl 4-cyclopentylsulfonylbenzoate], with 100 to 500 nM; and `CCc1nn(CCCCOC(=O)c2ccc(S(=O)(=O)N3CCCC3)cc2)c2c1C(=O)NCC1(CCOCC1)C2` [Example 377, 4-(3-ethyl-4-oxo-spiro[6,8-dihydro-5H-pyrazolo[4,3-c]azepme-7,4′-tetrahydropyran]-1-yl)butyl 4-pyrrolidin-1-ylsulfonylbenzoate], with 100 to 500 nM. Take `CCc1nn(CCCCOC(=O)c2ccc(S(=O)(=O)N3CCOCC3)cc2)c2c1C(=O)NCC1(CCOCC1)C2` [Example 378, 4-(3-ethyl-4-oxo-spiro[6,8-dihydro-5H-pyrazolo[4,3-c]azepine-7,4′-telrahydropyran]-1-yl)butyl 4-morpholinosulfonylbenzoate]: the IC50 was 100 to 500 nM. With `CCc1nn(CCCCOC(=O)c2ccc(C(=O)NC)cc2)c2c1C(=O)NCC1(CCOCC1)C2` [Example 379, 4-(3-ethyl-4-oxo-spiro[6,8-dihydro-5H-pyrazolo[4,3-c]azepine-7,4′-tetrahydropyran]-1-yl)butyl 4-(methylcarbamoyl)benzoate], the IC50 fell in the range of 100 to 500 nM. Then `CCc1nn(CCCCOC(=O)c2ccc(C(=O)N(C)C)cc2)c2c1C(=O)NCC1(CCOCC1)C2` [Example 380, 4-(3-ethyl-4-oxo-spiro[6,8-dihydro-5H-pyrazolo[4,3-c]azepine-7,4′-tetrahydropyran]-1-yl)butyl 4-(dimethylcarbamoyl)benzoate], with 100 to 500 nM.

With `CCc1nn(CCCCOC(=O)c2ccc(C(=O)N3CCOCC3)cc2)c2c1C(=O)NCC1(CCOCC1)C2` [Example 381, 4-(3-ethyl-4-oxo-spiro[6,8-dihydro-5H-pyrazolo[4,3-c]azepine-7,4′-tetrahydropyran]-1-yl)butyl 4-(morpholine-4-carbonyl)benzoate], the IC50 was 100 to 500 nM.

The IC50 is the concentration that gives 50% inhibition.
